Like-named read-outs stand apart in the source and are kept apart here.
What was measured:
[1] = Cell viability of B16 cells by neutral red dye uptake; assay type: cell-based; conditions: mouse, b16 f1 cells
Protocol: In order to ensure that melanin inhibition was not simply due to cell killing, cell viability was assessed by neutral red dye uptake. After the removal of media, 200 μL of pre-warmed medium containing 25 μg/ml neutral red dye was added to each well and incubated for 3 hours. Cells were washed 2× with PBS. The dye was extracted by adding […] of 50 H2O: 49 ethanol: 1 acetic acid and then gently shaken at room temperature for 20 minutes. The dye was quantified by reading the absorbance at 530 nm. Only viable cells are expected to take up the dye and the absorbance is directly proportional to the number of viable cells surviving the treatment.
For each treatment, the average of four replicate readings was calculated and expressed as percent of the average for the untreated control.

[2] = test system: human promyelocytic leukemia cells; conditions: Jang et al., Science 275: 218-220, 1997; cited from earlier work
ZR75 cells = test: 3H-thymidine incorporation (DNA synthesis) / proliferation of ZR75 cells, estrogen-like activity; assay type: cell-based, human
Source text: The following test was employed to determine whether resveratrol has an estrogen-like activity:
The ZR75 cell line is a ductal breast carcinoma cell line, originally isolated from malignant mammary epithelium of a person (Engel et al., Human breast carcinoma cells in continuous culture: A review., Cancer Res., 38: 4327-4339, 1978). This cell line contains receptors for estrogen, progesterone and other steroid hormones, but responds through an increase in proliferation only to estrogen. The cell line contains high affinity estrogen-specific receptors. Therefore, this cell line is used for testing estrogen-like activity (Markiewicz et al., In vitro bioassays of non-steroidal phytoestrogens, J. Steroid Biochem. Molec. Biol., 45: 399-405, 1993)
Methodology Used for Determining the Rate of DNA Synthesis in Cells
The incorporation of ^3 H-thymidine by cultured cells was used as an assay of cell proliferation (both for ZR75 cells and for keratinocytes). Thymidine is one of four deoxynucleosides which are the monomeric units of DNA. Prior to cell division of a somatic cell, the complete genome of the cell undergoing cell division is replicated. This involves large scale DNA synthesis by the cell and enables both daughter cells to receive identical copies of the genetic material. When ^3 H-thymidine is included in the culture media of cells which are synthesizing DNA in preparation for cell division then the labeled thymidine is incorporated into the newly synthesized DNA. The extent of incorporation of ^3 H-thymidine into a population of cells is proportional to the rate of DNA synthesis by this population of cells and therefore an indication of their cellular proliferation.
ZR75 cells (from American Type Culture Collection, Rockville, Md.) were grown in RPMI1640 media (from Gibco Life Technologies) with 10% fetal bovine serum (FBS) , 100 units penicillin per ml and 100 units of streptomycin per ml. All incubations were performed at 37° C. in 5% CO2. […] The cells were seeded at a density of one million per 75 cm2 flask. For the experiment, the cells were seeded in 24 well plates at 100,000 cells per ml per well.
After growing for 24 hours, the media was removed, the cells were washed with PBS (phosphate buffered saline, 0.01 M sodium phosphate, 0.138 M sodium chloride, 0.0027 M potassium chloride, pH 7.4) and 1 ml of RPMI 1640 without serum (but with streptomycin and penicillin) was added. Stock solutions of resveratrol in dimethyl sulfoxide (DMSO) and estradiol in water were prepared. […] After another 24 hours, one μCi of [methyl-3H] thymidine was added to each well. The media was removed after 24 hours. The cells were washed once in PBS, the PBS was removed completely and the cells were left on ice to incubate with 1 ml per well of 10% TCA (trichloroacetic acid) for 30 minutes. The plates were washed 3 times with 5% TCA to remove all traces of thymidine which wasn't incorporated into the cells. 500 μl of 0.1M sodium hydroxide was added to each well and the plates were incubated at room temperature for at least 30 minutes. 250 μl of each sample was transferred to scintillation vials and after adding 5 mL of counting fluid, the vials were counted for 5 minutes each on a setting for tritium. […] Values were expressed as mean of quadruplicate wells +/- standard deviation.

cyclo-oxygenase = conditions: known; cited from earlier work
[3] = Homo sapiens, ZR75, read-out: DNA synthesis (% of Control), EXPT 1, control DMSO
[4] = Homo sapiens, ZR75, read-out: DNA synthesis (% of Control), EXPT 2, control DMSO

With `Oc1ccc(/C=C/c2cc(O)cc(O)c2)cc1` [Resveratrol, 3,4'5-stilbenetriol] the viability at 72 h, 10 µM ([1]; 10 μM) was 94.6%, the viability at 72 h, 25 µM ([1]; 25 μM) was 86.8% and the viability at 72 h, 50 µM ([1]; 50 μM) was 69.2%. The viability at 72 h, 100 µM ([1]; 100 μM) was 1.8%, the “differentiation of human promyelocytic leukemia cells” value [2] was “induce differentiation of human promyelocytic leukemia cells” and the activity at 0.5 µM (ZR75 cells; [3]) was 69.7 ± 10%. For the same molecule, the activity at 1 µM (ZR75 cells; [3]) was 58.8 ± 9%, the activity at 10 µM (ZR75 cells; [3]) was 208 ± 32.5% and the activity at 20 µM (ZR75 cells; [3]) was 135 ± 21.4%. For the same molecule, the activity at 40 µM (ZR75 cells; Homo sapiens, ZR75, read-out: DNA synthesis (% of Control), EXPT 1, 40 μM, control DMSO) was 60.8 ± 26.4%, the activity at 50 µM (ZR75 cells; Homo sapiens, ZR75, read-out: DNA synthesis (% of Control), EXPT 1, 50 μM, control DMSO) was 4.1 ± 1.4% and the activity at 0.5 µM (ZR75 cells; [4]) was 56.8 ± 4.2%. For the same molecule, the activity at 1 µM (ZR75 cells; [4]) was 60.5 ± 3.6%, the activity at 5 µM (ZR75 cells; Homo sapiens, ZR75, read-out: DNA synthesis (% of Control), EXPT 2, 5 μM, control DMSO) was 159 ± 4.1% and the activity at 10 µM (ZR75 cells; [4]) was 163 ± 13.7%. The activity at 15 µM (ZR75 cells; Homo sapiens, ZR75, read-out: DNA synthesis (% of Control), EXPT 2, 15 μM, control DMSO) was 119 ± 2.5%, the activity at 20 µM (ZR75 cells; [4]) was 68 ± 3.9% and the “proliferation of ZR 75 cells” value (ZR75 cells; concentration from 5 to 20 μM) was “increased proliferation of ZR 75 cells”. For the same molecule, the cyclo-oxygenase inhibition (cyclo-oxygenase) was “known cyclo-oxygenase inhibitor”.
